How the values were obtained:
Assay in all cases: relative viability (nuclei count vs DMSO), 5 days (fraction); higher = more cells survive
[1] = compound: CC1=CC=C(C=C1)C(=O)CN2C3=C(CCCC3)SC2=N [Pifithrin_alpha] + Cc1nc(Nc2ncc(C(=O)Nc3c(C)cccc3Cl)s2)cc(N2CCN(CCO)CC2)n1 [Dasatinib] (partner 0.075 µM)
Summary of the method: (§1)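 For relative viability, nuclei counts in treated wells were divided by those in vehicle wells. Lung cancer cell lines had been pin-tool dosed in 1536-well plates the day after seeding and cultured for 5 days, then fixed and stained in one step (final 0.05% Triton X-100, 1% formaldehyde, 1 ug/ml Hoechst) and imaged at 4×. Doses were one drug alone or a fixed anchor-drug dose plus five library-drug doses (not always all listed) in √10 steps, and values are duplicate-plate medians.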

Axitinib + OSI-027 = compound: CNC(=O)c1ccccc1Sc1ccc2c(/C=C/c3ccccn3)n[nH]c2c1 [Axitinib] + COc1cccc2cc(-c3nc([C@H]4CC[C@H](C(=O)O)CC4)n4ncnc(N)c34)[nH]c12 [OSI-027] (partner 0.5 µM)
Summary of the method: as §1

Axitinib + Pemetrexed = compound: CNC(=O)c1ccccc1Sc1ccc2c(/C=C/c3ccccn3)n[nH]c2c1 [Axitinib] + Nc1nc2[nH]cc(CCc3ccc(C(=O)N[C@@H](CCC(=O)O)C(=O)O)cc3)c2c(=O)[nH]1 [Pemetrexed] (partner 0.2 µM)
Summary of the method: as §1

[2] = compound: CC1=CC=C(C=C1)C(=O)CN2C3=C(CCCC3)SC2=N [Pifithrin_alpha] + Cc1nc(NC(=O)N2CCC[C@H]2C(N)=O)sc1-c1ccnc(C(C)(C)C(F)(F)F)c1 [Alpelisib] (partner 2 µM)
Summary of the method: as §1

Cell Line	relative viability ([1]; first compound 1 µM)	relative viability ([1]; first compound 3.162 µM)	relative viability ([1]; first compound 10 µM)	relative viability ([1]; first compound 100 µM)	relative viability (Axitinib + OSI-027; first compound 0.005 µM)	relative viability (Axitinib + OSI-027; first compound 0.01581 µM)	relative viability (Axitinib + OSI-027; first compound 0.05 µM)	relative viability (Axitinib + OSI-027; first compound 0.1581 µM)	relative viability (Axitinib + OSI-027; first compound 0.5 µM)	relative viability (Axitinib + Pemetrexed; first compound 0.005 µM)	relative viability (Axitinib + Pemetrexed; first compound 0.01581 µM)	relative viability (Axitinib + Pemetrexed; first compound 0.05 µM)	relative viability (Axitinib + Pemetrexed; first compound 0.1581 µM)	relative viability (Axitinib + Pemetrexed; first compound 0.5 µM)	relative viability ([2]; first compound 1 µM)	relative viability ([2]; first compound 3.162 µM)	relative viability ([2]; first compound 10 µM)	relative viability ([2]; first compound 31.62 µM)	relative viability ([2]; first compound 100 µM)	relative viability ([1]; first compound 31.62 µM)
NCI-H441	0.556	0.574	0.498	0.613	0.736	0.604	0.681	0.541	0.748	0.271	0.305	0.232	0.248	0.265	0.942	0.859	0.673	0.708	0.85	
NCI-H2347	0.273	0.309	0.301	0.291	0.482	0.407	0.422	0.423	0.51	0.443	0.39	0.441	0.458	0.446	0.952	0.993	0.991	0.682	1.1	0.333
NCI-H358	0.165	0.169	0.187	0.16	0.785	0.737	0.874	0.681	1.02	0.166	0.154	0.182	0.173	0.181	0.895	0.958	0.87	0.566	0.687	0.181
NCI-H1944	0.217	0.214	0.217	0.196	0.389	0.404	0.42	0.424	0.392	0.6	0.583	0.707	0.657	0.652	0.866	0.762	0.72		0.75	0.173
NCI-H1792		1.17	0.641	0.639	0.785	0.652	0.563	0.679	0.919	1.05	0.784	0.786	0.816	0.792	0.688	0.67	0.485	0.469	0.657	0.533
UMC-11	0.465	0.656	0.514	0.638	0.494	0.504	0.438	0.498	0.521	0.774	0.81	0.77	0.867	0.81	1.09	1.07	1.05	0.842	1.16	0.436
PC-3 [JPC-3]	0.971	0.928	0.671	0.917	0.762	0.668	0.809	0.72	0.915	0.963		1.32	1.06	1.16	0.953	0.945	0.975	0.884	0.882	0.933
LU99A	0.385	0.651	0.609	0.583	0.314	0.317	0.342	0.289	0.304	0.196	0.203	0.182	0.175	0.204	0.503	0.576	0.543		0.646	0.369
CAL-12T	0.327	0.249	0.258	0.196	0.847	0.684	0.728	0.597	0.634	1.43	1.35	1.28	1.22	1.24		1.04	0.971	0.736	1.13	
NCI-H2087	0.982	0.869	0.83	0.862	0.622	0.558	0.696	0.562	0.831	0.766	0.593	0.597	0.7	0.728	1.05	1.04	0.862	0.671	0.884	
LCLC-97TM1	1.08	0.846	0.984	0.954	0.589	0.51	0.427	0.48	0.475	0.203	0.188	0.176	0.186	0.181		0.226	0.224		0.236	0.428
BEN	0.217	0.36	0.373	0.299	0.3	0.287	0.3	0.286	0.342	0.73	0.858	0.801	0.859	0.751	1.01	1.19	1.14	0.965	1.22	0.343
NCI-H1915	0.284	0.295		0.276	0.615	0.653	0.65	0.64	0.756	0.497	0.494	0.501	0.522	0.536	0.979	1.11	1.05		1.12	
HARA		0.256	0.257	0.268	0.445	0.414	0.666	0.49	0.802	0.231	0.265	0.309	0.26	0.258	0.757	0.794	0.856	0.638	0.519	
EMC-BAC-2	0.311	0.319	0.298	0.311	0.409	0.374	0.359	0.426	0.409	0.476	0.464	0.456	0.461	0.518	0.719	0.776	0.738	0.56	0.822	
LOU-NH91	0.371	0.501	0.535	0.493	0.736	0.513	0.745	0.719	0.707	0.392	0.402	0.406	0.421	0.395	0.63	0.637	0.635	0.616	0.583	0.475
NCI-H3122	0.82	0.901	0.732	0.758	0.959	0.946	1.01	0.709	1.02	0.218	0.196	0.219	0.193	0.212	0.859	0.864	0.912	0.812	0.917	
